Source: a melting point compilation (Tetko et al.; mined from patent text by program, amines drawn as free bases though some values may be those of a salt)

Row | SMILES | melting point [°C]
1 | CC(C)(C)OC(=O)N[C@@H](Cc1ccc(O)cc1)C(=O)NCCCN1CCN(CCCNc2cccc3c2C(=O)c2ccccc2C3=O)CC1 | 102
2 | COc1cc2c3c(cccc3c1OC)C(=O)N(O)C2=O | 226 to 228
3 | O=C(CC(=O)c1ccc(C(F)(F)F)cc1[N+](=O)[O-])c1ccccc1 | 101 to 103
4 | O=c1c(C2=CS(=O)(=O)c3cc(NS(=O)(=O)c4ccccc4)ccc3N2)c(O)c2cc(F)ccc2n1CCC1CC1 | > 200
5 | CCCCCCCCCCc1csc2c1sc1c3scc(CCCCCCCCCC)c3sc21 | 111 to 113
6 | COC=CC(C)(C)C(=O)Nc1ccc(Cl)cc1 | 93
7 | CCOC(=O)c1snc(CO)c1N | 82 to 85
8 | CC1(C)CC(=O)c2c(ncc3[nH]c4ccccc4c23)C1 | 224 to 225
9 | COc1cn(-c2ccc(-c3ccccn3)cc2F)nc(-c2ccnn2-c2ccccc2)c1=O | 206 to 208
10 | Fc1ccc(Cn2c(NC3CCN(C4CCCN(Cc5ccccc5)C4)CC3)nc3ccccc32)cc1 (configuration not stated) | 175
11 | O=C(C(=O)c1cccc(Br)c1)c1cc[nH]c1 | 111 to 113
12 | CCOC(=O)C1CC(=O)C(C(=O)CC)C(=O)C1 (configuration not stated) | 55 to 56
13 | COc1cc2c(c(C(C(N)=O)c3ccccc3)c1)CC(C)O2 (configuration not stated) | 148
14 | N=C1SCCN1c1ccc(C(F)(F)F)cc1[N+](=O)[O-] | 153
15 | C(=C\c1nc(COc2ccc(CCCn3cncn3)cc2)co1)/c1ccccc1 | 108 to 109
16 | O=C1N(Cc2cnc(N3CCOCC3)s2)c2ccccc2C12COc1cc3c(cc12)OCO3 (configuration not stated) | 97 to 99
17 | CS(=O)(=O)c1ccc2c(c1)[nH]c(=O)c(=O)n2C1CCCCC1 | > 300
18 | COCCOc1ccc(-c2sc(N)c(C(=O)c3ccc(Cl)cc3)c2CN(C2CCCCC2)C2CCCCC2)cc1 | 162 to 164
19 | COc1cc2c(cc1O)C(C)(C)CC2 | 43.5 to 44.5
20 | CC(C)c1c(C(=O)Nc2ccccc2)c(-c2ccccc2)c(-c2ccc(F)cc2)n1CC[C@H]1C[C@H](O)CC(=O)O1 (relative stereo) | 90 to 97
21 | CCCOc1ccccc1-c1ccc(C(=O)O)c(=O)[nH]1 | 194 to 196
22 | O=C(O)COc1cccc(NCc2nc(-c3ccccc3)c(-c3ccccc3)o2)c1 | 146 to 151

Row | SMILES | melting point [°C]
23 | O=C(O)[C@H](O)C1CCCCC1 | 124 to 126
24 | O=[N+]([O-])c1ccc(OCCCN2CCC(C(O)(c3ccc(F)cc3)c3ccc(F)cc3)CC2)cc1 | 93.5 to 94.5
25 | Cc1ccc2c(c1)N=C(N1CCN(C)CC1)c1cccc3c1N2CC3 | 160 to 162
26 | Cc1ccc(N2CN(C(C)(C)C)C3=NN=CC3=C2N)cc1 | 203 to 204
27 | O=C(Nc1cccc2ccccc12)OCCCC(=O)c1ccccc1 | 95 to 97
28 | OCc1cn(Cc2ccc(OCc3csc(-c4ccccc4)n3)cc2)nc1-c1cccs1 | 147 to 148
29 | CC(CCC(O)C(C)(C)O)C1CCC2C3CC=C4CC(O)CC(O)C4(C)C3CCC12C (configuration not stated) | 198 to 200
30 | CC(=O)C(C)(O)c1ccc(O)cc1 (configuration not stated) | 101 to 102
31 | CCCCCCCCCCCCCCCCCCOS(=O)(=O)NC(=O)Nc1c(C(C)C)cccc1C(C)C | 95 to 98
32 | CC(=O)SC(CC(=O)c1ccc(F)cc1)C(=O)O (configuration not stated) | 108 to 110
33 | O=S(=O)(O)NCCC(F)(F)F | > 250
34 | O=C(O)C(=O)c1ccc(OCCOc2ccc(Oc3ccccc3)cc2)cc1 | 124 to 126
35 | O=C1CSC(c2ccc(-n3ccc(=O)cc3)cc2)=NN1 | 289 to 291
36 | Cn1cc(-c2cncc(OC3SCC(O)C(O)C3O)c2)cn1 (configuration not stated) | 216
37 | CC1=CC(O)C(OC(=O)c2ccccc2)C(C)(C)CC1OC(=O)c1ccccc1 (configuration not stated) | 142 to 144
38 | COC(=O)c1ccccc1C(=O)NNC(=S)Nc1ccccc1 | 140 to 142
39 | CCCCCCCCCCCCCCCCC(O)CN (configuration not stated) | 75.2 to 76.5
40 | C=CCC(C)(C)C(O)C(c1cccc(OC)c1)n1ccnc1 (configuration not stated) | 83
41 | N#CC(Cc1ccccc1Cl)C(=O)O (configuration not stated) | 132 to 134
42 | O=C1C(C(c2ccccc2)c2ccccc2)NC2CCCC3C(C2)C13 (configuration not stated) | 178 to 181
43 | CC(c1oc2ccccc2c(=O)c1-c1cccc(F)c1)n1ncc2c(Cl)ccnc21 (configuration not stated) | 173 to 176
44 | Fc1ccc2[nH]cc(C3=CCN(CC4COc5ccc6[nH]ccc6c5O4)CC3)c2c1 (configuration not stated) | 112

Second part, the compound after the results:

Row | melting point [°C] | SMILES
45 | 180 to 182 | CCc1cc(-c2nc(C)c(-c3ccnc(Nc4cccc(CNC(C)=O)c4)n3)s2)ccn1
46 | 97 to 98 | Cc1oc(-c2ccccc2)nc1COc1ccc(CCc2oc(-c3ccccc3)nc2CC#N)cc1
47 | 174 to 177 | COc1c(C(N)=O)oc2c3ccccc3n(C)c12
48 | 49 to 51 | CC1=C(C)C(=O)C(CCCCC#CCCCC#CC(=O)O)=C(C)C1=O
49 | 168 to 170 | CNC(=O)[C@@H](O)[C@H](Sc1cc(C)ccc1N)c1ccc(C)cc1
50 | 240 to 244 | COc1nc2cc(Cl)c(Cl)c(N(S(C)(=O)=O)S(C)(=O)=O)c2nc1OC
51 | 181 to 182 | Nc1nc2[nH]c(CCC#Cc3cscc3C(=O)N[C@@H](CCC(=O)O)C(=O)O)cc2c(=O)[nH]1
52 | 97.5 to 99.5 | CCN(CC)C(=O)COc1cc(N)c(Cl)cc1C(=O)OC
53 | 103 | Cc1ccc(C(C)C)c(-n2cc(-c3ccccc3)c(C)c2Cl)c1
54 | 113 to 114 | COc1cc2c(c3c1OC(C)(C)C3)C(c1cccnc1)=NC(C)(C)C2
55 | 72 to 73.5 | C#CCOc1cc(C(=O)OC)cc(OC)c1OC
56 | 201 | Cc1cc(-c2ccc(Cl)c(C)c2)nc(-c2cccc(-c3cccc(S(N)(=O)=O)c3)c2)n1
57 | 194 to 204 | CCN1CCN(CC/C=C/c2ccc3c(Nc4ccc(Sc5nccn5C)c(Cl)c4)c(C#N)cnc3c2)CC1
58 | 160 to 161 | COCCN(C)C(=O)c1cc2c(nc(C)n2C)c2c1CCC1(Cc3ccccc3C1)N2
59 | 178 to 180 | CCC(O)(CC)c1ccc(Cl)c2nc3n(c12)CCCN3c1ccc(Cl)cc1C(F)(F)F
60 | 109 | O=[N+]([O-])c1ccc(F)c(-n2nc3c(c2Cl)CCCC3)c1
61 | 90 to 91 | Clc1cc(CCc2ccccn2)c2oc(-c3cccs3)nc2c1
62 | 110 to 111 | CCCc1cc(OCC)c2c(c1OC)S(=O)(=O)N(CSc1nnnn1-c1ccccc1)C2=O
63 | 143 to 144 | Cc1cc2oc(N(N)CCC#N)nc2c(C)c1C
64 | 206 to 208 | Cc1c(-c2ccccc2)oc2c(C(=O)NCCO)cccc2c1=O
65 | 238 to 241 | CC(=O)c1cc(C(=O)O)c(=O)[nH]c1C
66 | 186 to 187 | Cc1ccc(CS(=O)c2nc3cc4c(cc3[nH]2)OC(F)C(F)(F)O4)nc1 (configuration not stated)
67 | 184 to 185 | CNC(=O)Nc1c(C)nn(-c2cc(OC(C)C)c(Cl)cc2F)c1C
68 | 62 to 64 | CCc1ccc2c(=O)c3ccccc3ccc2c1
69 | 208 to 209 | O=c1cc(N2CCNCC2)oc2c1ccc1ccccc12
70 | 86 to 88 | Cc1cc(O)c(C)c(Br)c1C
71 | 78 to 81 | CCOC(=O)C1=NOC(c2ccccc2)(c2ccccc2)C1
72 | 196 to 199 | COc1cc2cc(C(C#N)N3CCOCC3)sc2cc1OC (configuration not stated)
